The values that follow come from patent publication US12157730B2, “Heteroaryl derivative, method for producing same, and pharmaceutical composition comprising same as effective component” (VORONOI INC., priority 2019, dated 2024).

As usually defined, the GI50 is the concentration at which growth is held to half of that of the control.

Each structure is given as a SMILES string.

Type in all cases: cell-based
For assay [1], the target named is T1, Ba/F3 cell EGFR L858R/T790M (Homo sapiens, UniProt P00533, L858R/T790M).
T1 construct: expressed in transfected cells; host or cells: Ba/F3
In words: Ba/F3 cell proliferation suppression, EGFR L858R/T790M. As to conditions: 72 hours after treatment, CellTiter-Glo. Here is the method: (§1) The following experiment was carried out to evaluate the suppression activity of the compounds according to the present invention against proliferation of Ba/F3 and lung cancer cells which express EGFR mutations.
(§2) Of the cancer cell lines expressing the EGFR gene, A549 was cultured after adding 10% FBS (HyClone) to DMEM (Invitrogen), and RPMI-1640 (Invitrogen) with 10% FBS was used for the other cancer cells. For the Ba/F3 cells, RPMI-1640 with 10% FBS and 5 ng/ml IL-3 (R&D Systems) was used. The transduced Ba/F3 cells were cultured by adding 1 ug/ml puromycin (Invitrogen) to the same medium.
(§3) 24 hours before treatment with the compounds, 3000 to 5000 cells were distributed into each well of a white clear bottom 96 well plate (Corning). The compounds were diluted in dimethylsulfoxide (dilution ratio 3:1; 12 concentrations total) and injected 0.5 ul each for a final concentration of 0.3 nM to 50 um. As for measurement of live cells, 72 hours after treatment with the compounds, a CellTiter-Glo luminescent cell-viability reagent (Promega) was used to store the cells at room temperature for 10 minutes, followed by measurement of luminescence using a reader (SynergyNeo, Biotek). Each test was repeated three times.
(§4) The result was calculated as a cell growth ratio (%) compared to a control. The program GraphPad Prism version 5.0 was used to draw the graphs and calculate the GI50 values.

The subject of assay [2] is Ba/F3 cell EGFR Del19/T790M. The assay is described as follows: Ba/F3 cell proliferation suppression, EGFR Del19/T790M. The conditions noted are these: 72 hours after treatment, CellTiter-Glo. As for the experimental part:
as §1, §2, §3, §4
(In general: In ATP-based viability assays light output follows the ATP content of the culture.)

A further assay deals with Ba/F3 cell naive. The assay is described as follows: Ba/F3 cell proliferation suppression, naive. As to conditions: Mus musculus, BaF3; 72 hours after treatment, CellTiter-Glo. Here is the method: as §1, §2, §3, §4
The target in assay [3] is T2, Ba/F3 cell EGFR Exon20 ins NPH (Homo sapiens, UniProt P00533, INS773NPH).
T2 construct: expressed in transfected cells; host or cells: Ba/F3
The assay is described as follows: Ba/F3 cell proliferation suppression, EGFR Exon20 ins NPH. The conditions noted are these: for GI50: 72 hours after treatment, CellTiter-Glo; for Ba/F3 (NPH) Activity: GI50 class, Ba/F3 cell line with NPH inserted at Exon20 of EGFR, 72 hours. Put shortly: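 Growth suppression determined as GI50 following 72 h exposure across 12 concentrations up to 50 um, with viability by luminescent ATP assay (CellTiter-Glo).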

Consider `C=CC(=O)Nc1cc(Nc2cc(N3OCC[C@@H]3c3ccccc3)ncn2)c(OC)cc1OCCN(C)C` [Example 8, N-(2-(2-(dimethylamino)ethxy)-4-methoxy-5-((6-(R)-3-phenylisoxazolidine-2-yl)pyrimidine-4-yl-amino)phenyl) acrylamide], for which the GI50 in assay [1] was 0.05 to 0.5 µM; in assay [2] it was 0.05 to 0.5 µM; in the assay on Ba/F3 cell naive it was 0.5 to 5 µM.
Turning to `C=CC(=O)Nc1cc(Nc2cc(N3OCC[C@@H]3c3cc(F)cc(F)c3)ncn2)c(OC)cc1N1CCC(N2C3CC2CN(CC)C3)CC1` [Example 249, N-(5-((6-((R)-3-(3,5-difluorophenyl)isoxazolidine-2-yl)pyrimidine-4-yl)amino)-2-(4-(3-ethyl-3,6-diazabicyclo[3.1.1]heptane-6-yl)piperidine-1-yl)-4-methoxyphenyl) acrylamide], the 50% growth inhibitory concentration (GI50) in assay [1] is below 0.05 µM; in assay [3], below 0.05 µM; with Ba/F3 cell naive, at least 5 µM. Also, the “Ba/F3 (NPH) Activity” value in assay [3] is recorded as “A (GI50 < 50 nM)”.
As to `C=CC(=O)Nc1cc(Nc2cc(N3OCC[C@@H]3c3cc(F)cc(F)c3)ncn2)c(OC)cc1N1CCC(N2CCC(N(C)C)CC2)CC1` [Example 253], the GI50 in assay [1] is below 0.05 µM; in assay [3], below 0.05 µM; in the assay on Ba/F3 cell naive, 0.5 to 5 µM. The “Ba/F3 (NPH) Activity” value in assay [3] is “A (GI50 < 50 nM)”.
As to `C=CC(=O)Nc1cc(Nc2cc(N3OCC[C@@H]3c3cc(F)cc(F)c3)ncn2)c(OC)cc1N1CCC(N2CC[C@H](N(C)C)C2)CC1` [Example 250, N-(5-((6-((R)-3-(3,5-difluorophenyl)isoxazolidine-2-yl)pyrimidine-4-yl)amino)-2-(4-((S)-3-(dimethylamino)pyrolidine-1-yl)piperidine-1-yl)-4-methoxyphenyl) acrylamide], the results for the concentration for 50% growth inhibition (GI50) (in assay [1]; in assay [3]; with Ba/F3 cell naive) were below 0.05 µM, below 0.05 µM and at least 5 µM, respectively. The “Ba/F3 (NPH) Activity” value in assay [3] is given as “A (GI50 < 50 nM)”.
With `C=CC(=O)Nc1cc(Nc2cc(N3OCC[C@@H]3c3cc(F)cc(F)c3)ncn2)c(OC)cc1N1CCC(N2CCN(C(C)=O)CC2)CC1` [Example 251, N-(2-(4-(4-acetylpiperazine-1-yl)piperidine-1-yl)-5-((6-((R)-3-(3,5-difluorophenyl)isoxazolidine-2-yl)pyrimidine-4-yl)amino)-4-methoxyphenyl) acrylamide], the values for the GI50 (in assay [1]; in assay [3]; in the assay on Ba/F3 cell naive) were below 0.05 µM, below 0.05 µM and at least 5 µM, respectively. Moreover, the “Ba/F3 (NPH) Activity” value in assay [3] is listed as “A (GI50 < 50 nM)”.
Turning to `C=CC(=O)Nc1cc(Nc2cc(N3OCC[C@@H]3c3cc(F)cc(F)c3)ncn2)c(OC)cc1N1CCC(N2CC3CC(C2)N3CC)CC1` [Example 252, N-(5-((6-((R)-3-(3,5-difluorophenyl)isoxazolidine-2-yl)pyrimidine-4-yl)amino)-2-(4-(6-ethyl-3,6-diazabicyclo[3.1.1]heptane-3-yl)piperidine-1-yl)-4-methoxyphenyl) acrylamide], the figures for the GI50 (in assay [1]; in assay [3]; with Ba/F3 cell naive) were below 0.05 µM, below 0.05 µM and 0.5 to 5 µM, respectively. For the same compound, the “Ba/F3 (NPH) Activity” value in assay [3] was “A (GI50 < 50 nM)”.
In the case of `C=CC(=O)Nc1cc(Nc2cc(N3OCC[C@@H]3c3cccc4ccccc34)ncn2)c(OC)cc1N1CCC(N2CCN(C(C)C)CC2)CC1` [compound 490, N-(2-(4-(4-isopropylpiperazine-1-yl)piperidine-1-yl)-4-methoxy-5-((6-((R)-3-(naphthalene-1-yl)isoxazolidine-2-yl)pyrimidine-4-yl)amino)phenyl)acrylamide], in assay [3], the “Ba/F3 (NPH) Activity” value was “A (GI50 < 50 nM)”.
Consider `C=CC(=O)Nc1cc(Nc2cc(N3OCC[C@@H]3c3cccc(F)c3)ncn2)c(OC)cc1N1CCN(C2CC2)CC1` [compound 830, N-(2-(4-cyclopropylpiperazine-1-yl)-5-((6-((R)-3-(3-fluorophenyl)isoxazolidine-2-yl)pyrimidine-4-yl)amino)-4-methoxyphenyl) acrylamide], for which, in assay [3], the “Ba/F3 (NPH) Activity” value is reported as “A (GI50 < 50 nM)”.
As to `C=CC(=O)Nc1cc(Nc2cc(N3OCC[C@@H]3c3cccc(OC)c3)ncn2)c(OC)cc1N1CCC(N2C[C@@H](C)O[C@@H](C)C2)CC1` [compound 727, N-(2-(4-((2S,6R)-2,6-dimethylmorpholino)piperidine-1-yl)-4-methoxy-5-((6-((R)-3-(3-methoxyphenyl)isoxazolidine-2-yl)pyrimidine-4-yl)amino)phenyl)acrylamide], in assay [3], the “Ba/F3 (NPH) Activity” value was “A (GI50 < 50 nM)”.
Consider `C=CC(=O)Nc1cc(Nc2cc(N3OCC[C@@H]3c3cc(F)cc(F)c3)ncn2)c(OC)cc1N1C[C@@H]2C[C@H]1CO2` [compound 437, N-(2-((1S,4S)-2-oxa-5-azabicyclo [2.2.1]heptane-5-yl)-5-((6-((R)-3-(3,5-difluorophenyl)isoxazolidine-2-yl)pyrimidine-4-yl)amino)-4-methoxyphenyl) acrylamide], for which the “Ba/F3 (NPH) Activity” value in assay [3] is recorded as “B (50 nM ≤ GI50 < 500 nM)”.
As to `C=CC(=O)Nc1cc(Nc2cc(N3OCC[C@@H]3c3ccc(C)nc3)ncn2)c(OC)cc1N1CCOCC1` [Example 43], the “Ba/F3 (NPH) Activity” value in assay [3] is reported as “B (50 nM ≤ GI50 < 500 nM)”.
As to `C=CC(=O)Nc1cc(Nc2cc(N3OCC[C@@H]3c3ccc(F)c(F)c3)ncn2)c(OC)cc1N1CC[C@@H](N2CCOCC2)C1` [compound 578, N-(5-((6-((R)-3-(3,4-difluorophenyl)isoxazolidine-2-yl)pyrimidine-4-yl)amino)-4-methoxy-2-((R)-3-morpholinopyrolidine-1-yl)phenyl)acrylamide], the “Ba/F3 (NPH) Activity” value in assay [3] is “B (50 nM ≤ GI50 < 500 nM)”.
Regarding `C=CC(=O)Nc1cc(Nc2cc(N3OCC[C@H]3c3c(F)cccc3F)ncn2)c(OC)cc1N1CCC(N2CCOCC2)CC1` [compound 897, N-(5-((6-((S)-3-(2,6-difluorophenyl)isoxazolidine-2-yl)pyrimidine-4-yl)amino)-4-methoxy-2-(4-morpholinopiperidine-1-yl)phenyl)acrylamide], the “Ba/F3 (NPH) Activity” value in assay [3] is recorded as “C (500 nM ≤ GI50 < 5000 nM)”.
Turning to `C=CC(=O)Nc1cc(Nc2cc(N3OCC[C@@H]3c3ccc(F)c(Cl)c3)ncn2)c(OC)cc1N1CCC(N2CCC3(CC2)CC3)CC1` [compound 872, N-(2-(4-(6-azaspiro [2.5]octan-6-yl)piperidine-1-yl)-5-((6-((R)-3-(3-chloro-4-fluorophenyl)isoxazolidine-2-yl)pyrimidine-4-yl)amino)-4-methoxyphenyl) acrylamide], the “Ba/F3 (NPH) Activity” value in assay [3] was “A (GI50 < 50 nM)”.
For the compound `C=CC(=O)Nc1cc(Nc2cc(N3OCC[C@@H]3c3cccc(F)c3F)ncn2)c(OC)cc1N1CCC(N2CC3CCC(C2)N3C2CC2)CC1` [Example 135, N-(2-(4-(8-cyclopropyl-3,8-diazabicyclo[3.2.1]octan-3-yl)piperidine-1-yl)-5-((6-((R)-3-(2,3-difluorophenyl)isoxazolidine-2-yl)pyrimidine-4-yl)amino)-4-methoxyphenyl) acrylamide], the “Ba/F3 (NPH) Activity” value in assay [3] is given as “A (GI50 < 50 nM)”.
As to `C=CC(=O)Nc1cc(Nc2cc(N3OCC[C@@H]3c3cccc4ccccc34)ncn2)c(OC)cc1N1CC[C@@H](N(C)C)C1` [compound 443, N-(2-((R)-3-(dimethylamino)pyrolidine-1-yl)-4-methoxy-5-((6-((R)-3-(naphthalene-1-yl)isoxazolidine-2-yl)pyrimidine-4-yl)amino)phenyl) acrylamide], the “Ba/F3 (NPH) Activity” value in assay [3] is on record as “A (GI50 < 50 nM)”.
Consider `C=CC(=O)Nc1cc(Nc2cc(N3OCC[C@@H]3c3cc(F)cc(F)c3)ncn2)c(OC)cc1N1CCC(N2CCOC[C@H]2C)CC1` [compound 842, N-(5-((6-((R)-3-(3,5-difluorophenyl)isoxazolidine-2-yl)pyrimidine-4-yl)amino)-4-methoxy-2-(4-((R)-3-methylmorpholino)piperidine-1-yl)phenyl) acrylamide], for which the “Ba/F3 (NPH) Activity” value in assay [3] is “A (GI50 < 50 nM)”.
On the same count and under the same terms, next, `C=CC(=O)Nc1cc(Nc2cc(N3OCC[C@@H]3c3cccc(F)c3F)ncn2)c(OC)cc1N1CCN(C)C[C@@H]1C` [compound 886, N-(5-((6-((R)-3-(2,3-difluorophenyl)isoxazolidine-2-yl)pyrimidine-4-yl)amino)-2-((S)-2,4-dimethylpiperazine-1-yl)-4-methoxyphenyl) acrylamide]: “A (GI50 < 50 nM)”; `C=CC(=O)Nc1cc(Nc2cc(N3OCC[C@@H]3c3cccc(F)c3F)ncn2)c(OC)cc1N1CC[C@@H](N(C)C)C1` [compound 927, N-(5-((6-((R)-3-(2,3-difluorophenyl)isoxazolidine-2-yl)pyrimidine-4-yl)amino)-2-((R)-3-(dimethylamino)pyrolidine-1-yl)-4-methoxyphenyl) acrylamide]: “A (GI50 < 50 nM)”.
